Where “and” joins values, the source holds several entries; their conditions need not be identical. Equal entries are not always repeated. Positions of bridges follow the written chain, without caps; N, C: chain ends. No end group written: not given here.
Legend:
[1] = system: Schaffer collateral-CA1 synaptic transmission in mouse hippocampal slices after OGD; test: fEPSP recovery after oxygen-glucose deprivation (OGD) in hippocampal slices, treatment during OGD (Example 7); format: cell-based, C57Bl6/J mice; conditions: NX218 250 μg/mL during OGD, n=9 slices
Protocol: Acute episodes of hypoxia may cause a depression in synaptic activity in many brain regions. […] To meet this goal, functional recovery was assessed by recording evoked field excitatory postsynaptic potentials (fEPSPs) in mouse hippocampal neurons, before and after oxygen-glucose deprivation (OGD).
Experiments were carried out with 4-5 weeks old male C57Bl6/J mice (approximately 20 grams) obtained from Charles River, France. In total, 9 mice were used in this study. Two slices were recorded from each mouse (one for the control condition and another for the NX218 condition). Animals were acclimated to laboratory housing conditions for 13 days prior to experimental use. Standard Food (Type a04, SAFE, France) was available ad libitum. Filtered mains drinking water ([…]) was available ad libitum.
Sagittal hippocampal brain slices were obtained using standard brain slicing methods (approximately 6 slices per mouse) (Knobloch et al. 2007). Mice were anesthetized with 5% isoflurane and then decapitated. Brain was dissected out of the cranium and immediately immersed in ice-cold freshly prepared artificial cerebrospinal fluid (aCSF) containing: 124 mM NaCl, 3.75 mM KCl, 2 mM MgSO4, 2 mM CaCl2, 26.5 mM NaHCO3, 1.25 mM NaH2PO4, 10 mM glucose, continuously oxygenated (95% O2, 5% CO2) (pH=7.4) for a total duration of 3-4 minutes. Acute slices (350 μm thick) were prepared using a vibratome (VT 1000S; Leica Microsystems, Bannockburn, IL). […]
For electrophysiological recordings, a single slice was placed in the recording chamber (room temperature), submerged and continuously superfused with gassed aCSF (95% O2, 5% CO2; pH=7.4) at a constant rate (2 mL min^−1) for the reminder of the experiment. Extracellular field excitatory postsynaptic potentials (fEPSPs) were recorded in the CA1 stratum radiatum using a glass micropipette filled with aCSF. fEPSPs were evoked by the electrical stimulation of Schaffer collateral-commissural pathway at 0.1 Hz (i.e., a single pulse every 10 s) with a glass stimulating electrode (borosilicate capillary glass with filament, standard wall; OD: 1.5 mm; ID: 0.86 mm; Length: 75 mm; ref: W3 30-0060 from Harvard Apparatus) placed in the stratum radiatum.
At the beginning of each experiment (when a stable fEPSP response was reached), Input/Output (I/O) curves were obtained by gradual increases in stimulus intensity (from 0 to 100 μA, 10 μA intervals) to determine the intensity of stimulation that was kept for the reminder of the experiment. Stable baseline fEPSPs was then recorded during 10 minutes by stimulating at 80% of maximal field amplitude (single pulse every 10 s, i.e., 0.1 Hz). […]

pCREB = pCREB protein level in cortical samples of subchronic PCP mice (WES automated protein analysis); format: in vivo, Swiss CD-1 mice; conditions: PCP + NX218 5 mg/kg D14; PCP alone 44.17; n=5
Protocol: (§1) PCP (or saline for control group) was administered at a dose of 0.2 mg/kg by subcutaneous injections twice daily for 12 days (day 0 to day 11).
(§2) Approximately 5 minutes after the test, mice were anaesthetized with 5% isoflurane oxygen mixture. Brains were extracted immediately, then the cortex of each hemisphere were collected. Right and left cortices were transferred into clean pre-labelled microtubes and the exact weight of each sample was recorded. Finally, samples were stored at −80° C. for further analysis.
(§3) Brain samples were lysed with a defined buffer lysis consisting of CelLyticMT reagent with 1% of protease and phosphatase inhibitor cocktail (60 μL per well). Lysates were processed at +4° C. and stored at −80° C. at the end of the experiment. For each sample, the quantity of proteins was determined using the micro kit BCA (Pierce). Briefly, lysates were centrifuged and diluted at 1/20 in PBS and mixed, in equal volume, with a micro BCA. After an incubation at 60° C. for 1 hour, the quantity of proteins was measured at 562 nm with a spectrophotometer Nanovue (GE Healthcare) and compared with the standard of Bovine Serum Albumin curve (BSA, Pierce).
(§4) Automated protein analysis were performed using the WES™ system (ProteinSimple®): […]
(§5) Each protein was evaluated independently. […] 5 samples (biological replicates) per condition were analyzed.

GluN2A = GluN2A level in cortical samples of subchronic PCP mice (WES automated protein analysis); format: in vivo, Swiss CD-1 mice; conditions: PCP + NX218 5 mg/kg D14; PCP alone 73.44; n=5
Protocol: as §1, §2, §3, §4, §5

“W-S-G-W-S-S-C-S-R-S-C-G [NX218] (WSGWSSCSRSCG; disulfide 7-11 (inferred))” was tested, and the “averaged normalized f-EPSP slope” value ([1]; 0-30 min after start of OGD, vehicle 31.618) was 31.043 % of baseline, the “averaged normalized f-EPSP slope” value ([1]; 30-60 min after start of OGD, vehicle 47.152) was 61.7±5.0 % of baseline and 61.663 % of baseline and the “averaged normalized f-EPSP slope” value ([1]; 60-90 min after start of OGD, vehicle 69.598) was 88.0±2.6 % of baseline and 87.959 % of baseline. The “averaged normalized f-EPSP slope” value ([1]; last 10 min (of 90 min) after start of OGD, vehicle 72.432) was 92.6±2.4 % of baseline and 92.639 % of baseline, the “pCREB protein level in cortical samples” value (pCREB) was 68.67 % of control and the “GluN2A level in cortical samples” value (GluN2A) was 116.46 % of control.

From US20250177481A1, “SCO-spondin-derived polypeptides for enhancing synaptic transmission” (AXOLTIS PHARMA, priority 2021, published 2025)
